System: hepatoma cell line HepG2
Experiment: Survival of hepatoma cell line HepG2 in serum-free culture (viable cell count after 3 days)
Format: cell-based
Conditions: for Survival rate: HepG2, DMEM without fetal bovine serum; for Effect in controlling cell death (in words): HepG2, serum-free medium, concentration not given
Experimental: Two mL cell suspension of hepatoma cell line HepG2 dispersed in trypsin (5×10^5 cells) were inoculated on six multi-well plates and pre-culture by using Dulbecco's modified Eagle medium (DMEM) containing 5% fetal bovine serum, 1.6 g/L sodium hydrogencarbonate, 0.584 g/L L-glutamine, and 0.08 g/L kanamycin sulfate at 37° C. in a 5% CO2 gas phase. […] The viable cell count was assayed after 3 days of culture.
(§1) The hepatoma cell line HepG2 was pre-cultured in the same manner as in Example 1. After 1 day, the broth was recovered, the cell surfaces were washed with serum-free medium, and the culture was continued for another 3 days with the addition of medium containing 5%, 0% fetal bovine serum, or 2 mL of fresh medium comprising antithrombin III added in concentrations ranging from 1 to 25 μg/mL to media containing no fetal bovine serum (0%). The viable cell count was assayed after 3 days of culture.
as §1, with “III or any of-various synthetic protease inhibitors given in Table 4” for “III”, “added” for “added in concentrations ranging from 1 to 25 μg/mL”

For `NCCc1ccc(S(=O)(=O)F)cc1` [AEBSF, reference compound], the Survival rate (additive 50 μg/ml) was 92.2% and the “Effect in controlling cell death (in words)” value (shortened to “Effect”) was “effective in controlling cell death”.
In the case of `N=C(N)c1ccc(CS(=O)(=O)F)cc1` [APMSF, reference compound], the Survival rate (additive 40 μg/ml) is reported as 74.0%.
Compound `CC(=O)N[C@@H](CC(C)C)C(=O)N[C@@H](CC(C)C)C(=O)N[C@H](C=O)CCCNC(=N)N` [Leupeptin, reference compound] has a Survival rate (additive 0.5 μg/ml) of 65.5%.
With `Cc1ccc(S(=O)(=O)N[C@@H](CCCCN)C(=O)CCl)cc1` [TLCK, reference compound] the Survival rate (additive 50 μg/ml) was 89.3% and the “Effect” value was “effective in controlling cell death”.
In the case of “IGF-1: growth factor reported as survival factor”, the Survival rate (additive 50 ng/ml) is reported as 45.3%.
For “Insulin: hormone reported as survival factor”, the Survival rate (additive 0.1 μM) was 53.0%.
In the case of “Orosomucoide: typical serum protein used for comparison”, the Survival rate (additive 48.8 μg/ml) is reported as 61.5% and the “Effect” value is reported as “virtually no effect in controlling cell death”.
Work on “PDGF-AA: growth factor reported as survival factor” yielded a Survival rate (additive 50 ng/ml) of 54.0%.
With “Transferrin: typical serum protein used for comparison” the Survival rate (additive 150 μg/ml) was 62.8% and the “Effect” value was “virtually no effect in controlling cell death”.
Compound “aFGF: growth factor reported as survival factor” has a Survival rate (additive 10 ng/ml) of 59.6%.
“bFGF: growth factor reported as survival factor” showed a Survival rate (additive 10 ng/ml) of 55.2%.
For “α 1-antitrypsin: typical serum protein used for comparison”, the Survival rate (additive 150 μg/ml) was 72.7% and the “Effect” value was “virtually no effect in controlling cell death”.

From patent publication US6858428B2, “Human and animal cell culture medium containing antithrombin III for suppressing cell death” (Agency of Industrial Science and Technology, priority 1999, dated 2005)
